The target of one assay is T1, Dipeptidase 1 (Homo sapiens, UniProt P16444).
T1 sequence (P16444 whole entry): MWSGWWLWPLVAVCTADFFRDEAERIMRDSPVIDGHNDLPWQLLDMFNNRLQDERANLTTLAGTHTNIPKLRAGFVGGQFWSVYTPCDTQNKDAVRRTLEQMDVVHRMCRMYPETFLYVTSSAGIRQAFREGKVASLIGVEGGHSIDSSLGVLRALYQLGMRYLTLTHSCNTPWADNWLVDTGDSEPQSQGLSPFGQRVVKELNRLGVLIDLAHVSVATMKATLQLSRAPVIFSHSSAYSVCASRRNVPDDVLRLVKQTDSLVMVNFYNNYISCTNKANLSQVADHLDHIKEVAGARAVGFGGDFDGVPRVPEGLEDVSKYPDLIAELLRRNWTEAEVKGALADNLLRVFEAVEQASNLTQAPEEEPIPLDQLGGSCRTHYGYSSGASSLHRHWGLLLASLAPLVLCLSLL
The assay can be described thus: Dehydropeptidase I Assay. Particulars: pH 7; 37 °C. From the text:
Enzyme inhibition assay by biphenyl tetrazoles (BPTS)using dehydropeptidase 1 (DPH-1).

The next assay concerns the target T2, Beta-lactamase (Bacteroides fragilis, UniProt Q8KZP2).
T2 sequence (Q8KZP2 whole entry): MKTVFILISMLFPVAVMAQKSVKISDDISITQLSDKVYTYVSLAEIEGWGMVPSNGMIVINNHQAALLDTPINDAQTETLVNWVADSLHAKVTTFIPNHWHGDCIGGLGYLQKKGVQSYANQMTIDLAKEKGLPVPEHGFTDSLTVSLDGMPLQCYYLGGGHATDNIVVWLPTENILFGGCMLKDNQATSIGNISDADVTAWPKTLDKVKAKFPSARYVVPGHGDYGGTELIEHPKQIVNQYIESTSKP
The assay can be described thus: Metallo-Beta-Lactamase Assay. Particulars: pH 7; 37 °C. From the text: Enzyme inhibition assay by biphenyl tetrazoles (BPTS)using metallo-beta-lactamase.

Structures are written as SMILES.

For `CCCCc1nc2ccc(O)cc2c(=O)n1Cc1ccc(-c2ccccc2-c2nnn[nH]2)cc1`, the IC50 (usually the concentration that inhibits the measured activity by half) against Dipeptidase 1 was > 100 µM; against Beta-lactamase, 1.9 µM.
The corresponding values for `CCCc1nc(CC)c(C=O)n1Cc1ccc(-c2ccccc2-c2nnn[nH]2)cc1` are 190 µM and 7 µM.
Take `Cc1ccc(-c2ccccc2-c2nnn[nH]2)cc1` [L-158,507]: the IC50 on Dipeptidase 1 is > 1000 µM; against Beta-lactamase, 160 µM.
For `CCCc1nc2ccc(Cl)nc2n1Cc1ccc(-c2ccccc2-c2nnn[nH]2)cc1` [L-158-678], in that order: 240 µM and 3.5 µM.
The corresponding values for `Cc1ccnc2c1nc(C(C)C)n2Cc1ccc(-c2ccccc2-c2nnn[nH]2)cc1` [L-158-817] are > 100 µM and 1.8 µM.
For `CCCCc1nc2c(c(=O)n1Cc1ccc(-c3ccccc3-c3nnn[nH]3)cc1)SCC2` [L-159,906], in that order: > 100 µM and 0.4 µM.
`C1=Cc2c(c3ccccc3n2Cc2ccc(-c3ccccc3-c3nnn[nH]3)cc2)CC1` [L-161,189]: the IC50 on Dipeptidase 1 turned out to be 120 µM; against Beta-lactamase, 0.3 µM.
On to `c1ccc(-c2nnn[nH]2)c(-c2ccc(Cn3cnc4ccccc43)cc2)c1` [L-808,509], for which the IC50 against Dipeptidase 1 was > 500 µM; against Beta-lactamase it was 110 µM.
For `c1ccc(-c2ccccc2-c2nn[nH]n2)cc1` [L-809,022], in that order: > 1000 µM and 860 µM.
The corresponding values for `C1=Cc2[nH]c3cc(OCc4ccc(-c5ccccc5-c5nnn[nH]5)cc4)ccc3c2CC1` [L-809,339] are > 100 µM and 42 µM.
As to `Oc1ccc2c3c(n(Cc4ccc(-c5ccccc5-c5nnn[nH]5)cc4)c2c1)C=CCC3` [L-809,370], the IC50 at Dipeptidase 1 was > 100 µM; on Beta-lactamase, 6 µM.
For `c1ccc(-c2nnn[nH]2)c(-c2ccc(Cn3cnc4cccnc43)cc2)c1` [L-809-558], in that order: > 250 µM and 42 µM.
Take `Cc1nc2ccccc2n1Cc1ccc(-c2ccccc2-c2nnn[nH]2)cc1` [L-809-559]: the IC50 against Dipeptidase 1 was > 250 µM; against Beta-lactamase it was 4 µM.

The values are drawn from BindingDB's records for doi:10.1016/s1074-5521(98)90632-9 (Merck Research Laboratories, 1998).
